Experimental data from patent US10233184B2, “7-substituted sulfonimidoylpurinone compounds and derivatives for the treatment and prophylaxis of virus infection” (Hoffmann-La Roche Inc., priority 2016, dated 2019).
pEC50: −log10 of the molar value. Like-named read-outs stand apart in the source and are kept apart here.

How the values were obtained:
[1] = LYSA solubility study; assay type: physicochemical; details: aqueous solubility, 0.05M phosphate buffer pH 6.5
Summary of the method: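 Samples from 10 mM DMSO stock were dried, redissolved in 0.05M phosphate buffer pH 6.5, stirred 1 h, shaken 2 h, left overnight and filtered. Filtrate and 1/10 dilution quantified by HPLC-UV; solubility in μg/mL, reported as greater-than when >80% of the maximum sample amount was in solution.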

[2] = biological target: T1, human TLR7 (Homo sapiens, UniProt Q9NYK1); test: HEK293-Blue-hTLR-7 cells assay (SEAP reporter); assay type: cell-based
T1 sequence (Q9NYK1 27-1049): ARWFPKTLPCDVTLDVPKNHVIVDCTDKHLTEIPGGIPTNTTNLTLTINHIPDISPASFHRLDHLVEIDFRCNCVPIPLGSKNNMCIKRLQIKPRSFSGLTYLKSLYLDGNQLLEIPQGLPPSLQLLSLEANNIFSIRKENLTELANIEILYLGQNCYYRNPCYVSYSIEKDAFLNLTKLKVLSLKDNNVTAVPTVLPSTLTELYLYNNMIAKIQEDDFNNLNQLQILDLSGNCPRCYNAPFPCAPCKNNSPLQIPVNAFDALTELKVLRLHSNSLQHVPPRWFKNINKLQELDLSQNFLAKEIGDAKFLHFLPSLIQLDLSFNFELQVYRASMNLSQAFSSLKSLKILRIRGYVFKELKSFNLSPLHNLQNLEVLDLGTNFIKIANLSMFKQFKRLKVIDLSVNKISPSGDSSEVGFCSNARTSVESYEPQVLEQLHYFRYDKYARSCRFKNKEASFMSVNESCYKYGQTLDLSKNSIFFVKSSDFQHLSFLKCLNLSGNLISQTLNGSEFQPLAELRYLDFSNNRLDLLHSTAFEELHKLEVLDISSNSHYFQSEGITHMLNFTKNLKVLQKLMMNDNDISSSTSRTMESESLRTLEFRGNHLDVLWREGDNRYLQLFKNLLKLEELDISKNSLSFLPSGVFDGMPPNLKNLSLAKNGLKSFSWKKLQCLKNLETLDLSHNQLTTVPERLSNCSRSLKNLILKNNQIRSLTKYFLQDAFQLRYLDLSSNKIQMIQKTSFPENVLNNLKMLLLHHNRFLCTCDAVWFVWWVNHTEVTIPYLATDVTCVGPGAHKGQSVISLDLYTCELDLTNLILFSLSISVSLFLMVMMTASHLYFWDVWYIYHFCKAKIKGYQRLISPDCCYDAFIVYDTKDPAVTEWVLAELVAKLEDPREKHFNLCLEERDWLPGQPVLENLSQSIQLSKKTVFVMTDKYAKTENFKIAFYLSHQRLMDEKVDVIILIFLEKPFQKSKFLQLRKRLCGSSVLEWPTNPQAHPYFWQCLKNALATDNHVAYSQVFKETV
Summary of the method: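 HEK293-Blue-hTLR7 cells with NF-κB/AP-1-driven SEAP reporter exposed to serially diluted compound (1% DMSO) for 20 hrs at 37° C. Supernatant SEAP measured with QUANTI-Blue after 2 hrs at 37° C, absorbance 620~655 nm; agonism expressed as EC50.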

[3] = Portal vein study: oral PK in PVC/CAC dual cannulated rat; assay type: in vivo; details: prodrug 10 mg/kg oral, analyte prodrug
Experimental: Surgery was performed under pentobarbital/isoflurane anesthesia. Briefly, after disinfecting the abdominal area with betadine and 70% isopropyl alcohol, a small abdominal mid-line incision was made. The cecum was pulled out and mesenteric vein was identified and isolated for about 5 mm vessel. A loose ligature was placed proximally and distal end of the vein was ligated. Make a small incision (just enough to allow the insertion of the catheter) on isolated vein and insert the PU catheter towards liver for appropriate length. The catheter was secured in place by tying the loose ligature around the cannulated vessel. The cecum was replaced into abdominal cavity. A hole was made in the right abdominal wall to make the end of catheter pass freely. The catheter was secured by suture on the abdominal wall. The abdominal muscle incision was closed with suture. A small incision was made in the scapular area to serve as the exit site of the catheter. The catheter was subcutaneously tunneled and exteriorized through the scapular incision. A fixed suture was placed in the scapular region. The patency of the catheter was checked and then exteriorized from the subcutaneous space to the dorsal neck region. After gently wiping the area, the abdominal cavity was sutured. The left carotid artery was then cannulated by inserting a PESO catheter. Both the exteriorized catheters were tied firmly on the dorsal neck region and fixed. The animals was then allowed to recover in its cage and used for study at least 3 days after surgery. All catheters were flushed once daily with heparinized saline to maintain patency. Animals were fasted overnight (n=3) and administered vial oral gavage (10 mg/kg, 10 mL/kg). Blood samples (60 μL) were collected simultaneously from the portal and carotid artery catheters at 0.083, 0.25, 0.5, 1, 2, 4, 7, 24 h. All blood samples will be transferred into microcentrifuge tubes containing 2 μL of K2EDTA (0.5M) as anti-coagulant and placed on wet ice. Then blood samples will be processed for plasma by centrifugation at approximately 4° C., 3000 g within half an hour of collection. Plasma samples will be stored in polypropylene tubes, quick frozen over dry ice and kept at −70±10° C. until LC/MS/MS analysis. Pharmacokinetic parameters (mean±SD, n=3) of prodrugs and active forms in portal and carotid samples following oral administration of prodrugs (10 mg/kg) in portal vein cannulated rat were detected and analyzed.

[4] = phase Ib, patients with chronic hepatitis B; cited from earlier work
[5] = Single dose PK study in male Wister-Han rats; assay type: in vivo; details: male, Wister-Han, rat, plasma, po, 5 mg/kg, 5 mg/kg oral dosing of active form

CCCN(C)C(=O)n1c(=O)n(Cc2ccccc2)c2nc(S(=N)(=O)CCC)nc(N)c21 (single isomer, unassigned) [Example 1-B]
LYSA of Prodrugs [1]: 200 µg/mL
Ratio (EC50(prodrug)/EC50(active form)) ([2]; EC50 of prodrug over EC50 of corresponding active form): 314.0
pEC50 ([2]; HEK293-Blue-hTLR-7 cells, SEAP reporter, 20 hrs, prodrug, read-out: HEK293-hTLR-7 EC50 (Prodrug)): 4.57
AUC(0-t) ([3]; carotid artery plasma, read-out: AUC0-2 (nM · h), prodrug, Carotid sampling): 0.04 µM·h
Cmax ([3]; carotid artery plasma, read-out: Cmax (nM), prodrug, Carotid sampling): 70 nM
Tmax ([3]; carotid artery plasma, read-out: Tmax (h), prodrug, Carotid sampling): 0.083 h
AUC(0-t) ([3]; portal vein plasma, read-out: AUC0-2 (nM · h), prodrug, Portal sampling): 0.266 µM·h
Cmax ([3]; portal vein plasma, read-out: Cmax (nM), prodrug, Portal sampling): 670 nM
Tmax ([3]; portal vein plasma, read-out: Tmax (h), prodrug, Portal sampling): 0.083 h

CCCCOc1nc(N)c2c(n1)N(Cc1cccc(CN3CCCC3)c1)CC(=O)N2 [GS9620, reference compound]
ISG15 mRNA induction [4]: dose-dependent ISG15 mRNA induction
safety and tolerability [4]: safe, well tolerated
AUC(0-t) [5]: 0.316 µM·h
Cmax [5]: 164 nM
concentration at 0.25 h ([5]; 0.25 h): 56.3 nM
concentration at 0.5 h ([5]; 0.5 h): 33.2 nM
concentration at 1 h ([5]; 1 h): 83.4 nM
concentration at 2 h ([5]; 2 h): 136 nM
concentration at 4 h ([5]; 4 h): 16.7 nM
concentration at 8 h ([5]; 8 h): 9.49 nM
